Target: T1, NapT8 (Streptomyces sp. CNQ-525, UniProt A7KH30)
T1 sequence (A7KH30 1-297): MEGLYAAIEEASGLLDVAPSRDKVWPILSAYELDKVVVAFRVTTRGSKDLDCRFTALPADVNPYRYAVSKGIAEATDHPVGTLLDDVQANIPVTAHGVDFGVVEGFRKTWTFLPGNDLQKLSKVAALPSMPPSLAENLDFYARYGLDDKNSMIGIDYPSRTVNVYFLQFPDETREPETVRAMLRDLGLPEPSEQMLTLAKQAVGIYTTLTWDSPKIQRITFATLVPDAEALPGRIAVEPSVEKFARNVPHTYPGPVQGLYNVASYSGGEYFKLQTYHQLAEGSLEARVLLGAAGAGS
Experiment: reversed-phase HPLC turnover assay
Format: biochemical
Settings: 34 as prenyl acceptor; MgCl2

Compound: CC(C)=CCOP(=O)(O)OP(=O)(O)O [dimethylallyl pyrophosphate]
- reversed-phase HPLC turnover assay: NapT8 was only active when the isoprenoid DMAPP was utilized
